The text below walks through data of patent US11654101B2, “Use of magnolia, juniper or violet absolute in cosmetics for depigmenting the skin” (ROBERTET S.A., priority 2017, dated 2023).

The test system of this assay is murine melanocytes B16-F10. Kind of assay: Tests on B16 melanocytes, dosing of the intracellular melanin. The assay is classed as cell-based. The settings on record: B16-F10 cells incubated 24 h at 37° C.; intracellular melanin content, absorbance 405 nm. How it is done:
[…] model tests on melanin-producing cells, the murine melanocytes B16-F10, have been necessary. The decrease in the cellular tyrosinase activity, associated with a reduction of the intracellular melanin content, while preserving the survival of the cells by non-cytotoxic concentrations, have then been investigated. For this purpose, the B16-F10 cells have been seeded into 24-well plates, and incubated for 24 h at 37° C. with several concentrations of different selected raw materials. […] Afterwards, the cells are lysed, and centrifuged. In turn, the cell pellet is dissolved by a NaOH 1N solution and incubated for 1 hour at 70° C. before being deposited in a 96-well plate put in the spectrophotometer at 405 nm. Afterwards, a comparison with the absorbance of a standard melanin calibrated range allows determining the intracellular melanin content of each condition and checking on the inhibitor effect of the melanogenesis by the different raw materials.

SMILES strings stand for the structures.

For the compound `O=c1cc(CO)occ1O` [Kojic acid, kojic acid], the “Effective IC50” value was determined as 214 ppm.
